Source: patent EP2271935B1, “METHOD AND KIT FOR THE EX VIVO EVALUATION OF THE RESPONSE OF A TUMOR TO CONDITIONS TO BE TESTED” (Universität Leipzig, priority 2008, dated 2009)
Read-outs that look alike come from different tables or passages of the source.

System: epithelial cell line KB (DSMZ ACC 136)
Experiment: MTT assay of proliferation under varied riboflavin content and light exposure
Assay type: cell-based, human
Text: To address this question, three media, a) the RPMI 1640 without riboflavin and phenol red that is used in the method according to the invention and was manufactured according to our specifications by Biochrom, as well as two different RPMI 1640 charges purchased from Invitrogen which were each containing 532 nmol/L riboflavin, b) a phenol red-free (Gibco 11835), and c) a conventional RPMI 1640 (Gibco 21875) with 13.284 µmol/L phenol red. All media were supplemented with 2 mmol/L L-alanyl-1-glutamine as stabilized glutamine source (Biochrom K0302 Lot 0755 S) and the same amount of 10% (v/v) of heat-inactivated fetal calf serum (FCS) that was purchased from Invitrogen (Lot 41Q7554K) with a yield of 198 nmol/L riboflavin. […] These medium concentrations define the riboflavin concentrations in controls (see below).
In addition to the influences exerted by the different types of media alone, the riboflavin-dependent impact on the outcome of the docetaxel treatment was investigated. For this purpose 100 µl/well of docetaxel dilutions containing threefold the concentration indicated were added into the wells of microwell plates. The following seven docetaxel concentrations were tested: 19.38, 38.75, 77.5, 155, 310, 620, and 1,240 pmol/L.
To examine photoactivation-dependent riboflavin-mediated effects disturbing the outcome of ex-vivo chemoresponse-evaluation by conventional cell culture medium, and in particular in the absence of flavin-protecting experimental conditions, varying amounts of riboflavin were added. A stock solution of 200 µM (-)-riboflavin (CAS 83-68-5, Sigma R9504, FW=376.37 g/mol, purity >99%, cell culture tested) in phosphate buffered saline was diluted to adjust in each case the highest final concentration in culture (this means: after completion of the assay by addition of the other two components to the final assay volume of 300 µL) to exactly 10 µmol/L. Serial log10-dilutions were made from this concentration in each corresponding medium. These gave final concentrations in cell culture of 10.000, 1.018, 0.12, and 0.03 µmol/L in the case of medium a) (the medium according to the method of the invention), and concentrations of 10.000, 1.449, 0.594, and 0.508 µmol/L using media b) and c).
In general, each combination of riboflavin and docetaxel were tested in duplicate, and controls without additional riboflavin in quadruplicate for each experimental setting in the same 96-well plate. The experimental conditions were as follows: For each of the used media, two different plates were prepared simultaneously and either handled completely under flavin-protecting conditions (illumination only by sodium discharge lamps with an emission wavelength of 589 nm [i]), or in the same bench (Thermo MSC 12) with the installed light inside their working chamber switched on. The dilution of docetaxel and those of riboflavin in the particular medium were prepared for all four plates of each medium type prior to the other working steps under flavin-protecting conditions. Thus the administrations of these dilutions took about 20 min either under flavin-protecting conditions or illuminated conditions. After completed preparation of the plates that thereafter contained 200 µL of both diluted compounds, the plates were incubated 2 h in the incubator to allow for adjustment of the appropriate pH.
In between the stock culture of KB was harvested by trypsination of a 3-days stock culture (exponential growth phase). Stock cultures of KB cells always were grown without any antibiotic or antimycotic in phenol red- and riboflavin-free RPMI 1640 supplemented with 10% (v/v) FCS and were adapted to this medium for more than five passages. They were always handled at room temperature or warmer and were never exposed to light other than the light of a sodium discharge lamp with an emission wavelength of 589 nm for at least five passages. […]

Structure (SMILES): CC(=O)O[C@@]12CO[C@@H]1C[C@H](O)[C@@]1(C)C(=O)[C@H](O)C3=C(C)[C@@H](OC(=O)[C@H](O)[C@@H](NC(=O)OC(C)(C)C)c4ccccc4)C[C@@](O)([C@@H](OC(=O)c4ccccc4)[C@H]21)C3(C)C [docetaxel]
- IC50 (Homo sapiens, Epithelial cell, 0.5 h, Plate No. 02; Riboflavin 20 nmol/L; medium a) RPMI 1640 without riboflavin and phenol red, daylight 30 min, read-out: IC50 for docetaxel with reference to control with same riboflavin content): 0.238 nM
- IC50 (Homo sapiens, Epithelial cell, 0.5 h, Plate No. 02; Riboflavin 20 nmol/L; medium a), daylight 30 min, read-out: IC50 for docetaxel normalized to medium control of medium with same riboflavin content): 0.1 nM
- IC50 (Homo sapiens, Epithelial cell, 0.5 h, Plate No. 02; Riboflavin 30 nmol/L; medium a) RPMI 1640 without riboflavin and phenol red, daylight 30 min, read-out: IC50 for docetaxel with reference to control with same riboflavin content): 0.328 nM
- IC50 (Homo sapiens, Epithelial cell, 0.5 h, Plate No. 02; Riboflavin 30 nmol/L; medium a), daylight 30 min, read-out: IC50 for docetaxel normalized to medium control of medium with same riboflavin content): 0.138 nM
- IC50 (Homo sapiens, Epithelial cell, 0.5 h, Plate No. 02; Riboflavin 120 nmol/L; medium a) RPMI 1640 without riboflavin and phenol red, daylight 30 min, read-out: IC50 for docetaxel with reference to control with same riboflavin content): 0.34 nM
- IC50 (Homo sapiens, Epithelial cell, 0.5 h, Plate No. 02; Riboflavin 120 nmol/L; medium a), daylight 30 min, read-out: IC50 for docetaxel normalized to medium control of medium with same riboflavin content): 0.143 nM
- IC50 (Homo sapiens, Epithelial cell, 0.5 h, Plate No. 03; Riboflavin 20 nmol/L; medium a) RPMI 1640 without riboflavin and phenol red, bench lighting <30 min, read-out: IC50 for docetaxel with reference to control with same riboflavin content): 0.212 nM
- IC50 (Homo sapiens, Epithelial cell, 0.5 h, Plate No. 03; Riboflavin 20 nmol/L; medium a), bench lighting <30 min, read-out: IC50 for docetaxel normalized to medium control of medium with same riboflavin content): 0.1 nM
- IC50 (Homo sapiens, Epithelial cell, 0.5 h, Plate No. 03; Riboflavin 30 nmol/L; medium a) RPMI 1640 without riboflavin and phenol red, bench lighting <30 min, read-out: IC50 for docetaxel with reference to control with same riboflavin content): 0.185 nM
- IC50 (Homo sapiens, Epithelial cell, 0.5 h, Plate No. 03; Riboflavin 30 nmol/L; medium a), bench lighting <30 min, read-out: IC50 for docetaxel normalized to medium control of medium with same riboflavin content): 0.0873 nM
- IC50 (Homo sapiens, Epithelial cell, 0.5 h, Plate No. 03; Riboflavin 120 nmol/L; medium a) RPMI 1640 without riboflavin and phenol red, bench lighting <30 min, read-out: IC50 for docetaxel with reference to control with same riboflavin content): 0.154 nM
- IC50 (Homo sapiens, Epithelial cell, 0.5 h, Plate No. 03; Riboflavin 120 nmol/L; medium a), bench lighting <30 min, read-out: IC50 for docetaxel normalized to medium control of medium with same riboflavin content): 0.0725 nM
- IC50 (Homo sapiens, Epithelial cell, 0.5 h, Plate No. 03; Riboflavin 1018 nmol/L; medium a) RPMI 1640 without riboflavin and phenol red, bench lighting <30 min, read-out: IC50 for docetaxel with reference to control with same riboflavin content): 0.202 nM
- IC50 (Homo sapiens, Epithelial cell, 0.5 h, Plate No. 03; Riboflavin 1018 nmol/L; medium a), bench lighting <30 min, read-out: IC50 for docetaxel normalized to medium control of medium with same riboflavin content): 0.095 nM
- IC50 (Homo sapiens, Epithelial cell, 0.5 h, Plate No. 04; Riboflavin 20 nmol/L; medium a) RPMI 1640 without riboflavin and phenol red, bench lighting <30 min, daylight 30 min, read-out: IC50 for docetaxel with reference to control with same riboflavin content): 0.175 nM
- IC50 (Homo sapiens, Epithelial cell, 0.5 h, Plate No. 04; Riboflavin 20 nmol/L; medium a), bench lighting <30 min, daylight 30 min, read-out: IC50 for docetaxel normalized to medium control of medium with same riboflavin content): 0.1 nM
- IC50 (Homo sapiens, Epithelial cell, 0.5 h, Plate No. 04; Riboflavin 30 nmol/L; medium a) RPMI 1640 without riboflavin and phenol red, bench lighting <30 min, daylight 30 min, read-out: IC50 for docetaxel with reference to control with same riboflavin content): 0.139 nM
- IC50 (Homo sapiens, Epithelial cell, 0.5 h, Plate No. 04; Riboflavin 30 nmol/L; medium a), bench lighting <30 min, daylight 30 min, read-out: IC50 for docetaxel normalized to medium control of medium with same riboflavin content): 0.0796 nM
- IC50 (Homo sapiens, Epithelial cell, 0.5 h, Plate No. 04; Riboflavin 120 nmol/L; medium a) RPMI 1640 without riboflavin and phenol red, bench lighting <30 min, daylight 30 min, read-out: IC50 for docetaxel with reference to control with same riboflavin content): 0.149 nM
- IC50 (Homo sapiens, Epithelial cell, 0.5 h, Plate No. 04; Riboflavin 120 nmol/L; medium a), bench lighting <30 min, daylight 30 min, read-out: IC50 for docetaxel normalized to medium control of medium with same riboflavin content): 0.0855 nM
- IC50 (Homo sapiens, Epithelial cell, 0.5 h, Plate No. 06; Riboflavin 499 nmol/L; medium b) phenol red-free RPMI 1640, daylight 30 min, read-out: IC50 for docetaxel with reference to control with same riboflavin content): 0.223 nM
- IC50 (Homo sapiens, Epithelial cell, 0.5 h, Plate No. 06; Riboflavin 499 nmol/L; medium b), daylight 30 min, read-out: IC50 for docetaxel normalized to medium control of medium with same riboflavin content): 0.1 nM
- IC50 (Homo sapiens, Epithelial cell, 0.5 h, Plate No. 06; Riboflavin 508 nmol/L; medium b) phenol red-free RPMI 1640, daylight 30 min, read-out: IC50 for docetaxel with reference to control with same riboflavin content): 0.485 nM
- IC50 (Homo sapiens, Epithelial cell, 0.5 h, Plate No. 06; Riboflavin 508 nmol/L; medium b), daylight 30 min, read-out: IC50 for docetaxel normalized to medium control of medium with same riboflavin content): 0.218 nM
- IC50 (Homo sapiens, Epithelial cell, 0.5 h, Plate No. 06; Riboflavin 594 nmol/L; medium b) phenol red-free RPMI 1640, daylight 30 min, read-out: IC50 for docetaxel with reference to control with same riboflavin content): 0.187 nM
